What was measured:
Assay type in all cases: cell-based
[1] = test system: murine ATDC5 progenitor cells; experiment: Viability after freeze-thawing cycle, MTT assay
Procedure: FIG. 2. Bar graph showing the viability of different numbers of murine ATDC5 progenitor cells suspended in cryogenic media containing 7.5% DMSO and various concentrations of Pentosan Polysulfate (PPS) after being subjected to freeze-thawing cycle. Cell viability was determined using the mitochondrial dehydrogenase MTT assay.
Murine Progenitor cells (cell lines C3H10T1/2 or ATDC5) purchased from RIKEN Cell Bank (Tsukuba, Japan) or human immunoselected Stro-1+ progenitor cells (Mesoblast Ltd, Melbourne, Australia) were seeded at a various cell densities over the range of 1.68×10^5-1.0×10^6 cells into 2 mL screw-capped centrifuge tubes containing in DMEM+10% FBS. In separate tubes a stock solution containing 2× the required concentrations of PPS dissolved in DMEM+20% FBS and 15% DMSO were prepared. These stock solutions were added to the cell cultures such that the final concentration of PPS was half that of the stock concentration and of FBS was 10% and DMSO was […]. […] All concentrations of PPS used were examined in triplicated. Cells and the cryopreservation solutions containing the PPS were mixed gently for 5 mins and stored in liquid nitrogen. After 3 days, the tubes were removed from liquid nitrogen and thawed in 37° C. water bath and allowed to stand at ambient temperature for about 15 min. The cells were centrifuged down at 200 g for 5 min and the supernatant discarded. The cells were washed with 900 ul of DMEM without phenol red, and then centrifuged down at 200 g for 5 min. The cells were resuspended in 500 ul of 1 mg/ml MTT solution in DMEM and incubated in 37° C. for 3 hours then centrifuged at 6000 g for 5 min. 300 ul of DMSO was added to each tube to dissolved the dye crystals. 90 ul×3 from each tube were transferred to a 96-well plate and the absorbance at 540 nm determined.
Cell viability was determined using the MTT assay.

[2] = test system: Murine MSC line C3H10T1/2; experiment: Proteoglycan biosynthesis (35S-GAG) in 7 day pellet cultures; conditions: 10 micrograms/mL; 7 day pellet culture; FIG. 15
Source text: FIG. 15. Bar graphs showing the concentration dependent effects of Pentosan Polysulfate (PPS), on the biosynthesis of Proteoglycans (PGs) as determined by the incorporation of radioactively labelled sulfate into the sulfated glycosaminoglycans (^35S-GAG) of PGs in 7 day pellet cultures of a murine progenitor cells (C3H10T1-2).
Murine Progenitor cells (cell lines C3H10T1/2 or ATDC5) purchased from RIKEN Cell Bank (Tsukuba, Japan) or human immunoselected Stro-1+ Progenitor cells (Mesoblast Ltd, Melbourne, Australia) were seeded in 2 ml screw-capped sterile centrifuge tubes and the total volume made-up to 1 ml with DMEM-High glucose medium containing 10% FBS. Progenitor cells were then centrifuged at 500 g for 10 min in a swing-out rotor at room temperature. The screw caps were loosened and the tubes placed in an incubator at 37° C., in a 5% CO2/95% air moist atmosphere. The pellets generally formed within 24 hours. Medium was changed daily in the first two days, then once every 2-3 days thereafter. […] Biosynthesis of ^35S-GAGs was determined as described for the monolayer cultures and the results expressed as ^35-S-GAGs/μg DNA.

[3] = test system: murine Progenitor Cells (C3H10T1/2 cells); experiment: DNA synthesis (3H-Thymidine) in 2 day monolayer cultures; conditions: murine progenitor cell line, FIG. 10
Source text: FIG. 10. A bar graph of the concentration dependent effects of Pentosan Polysulfate (PPS) on DNA synthesis by murine Progenitor Cells (C3H10T1/2 cells) grown in monolayer cultures for 2 days as determined by the incorporation of ^3H-Thymidine into macromolecular DNA.

human progenitor cells = experiment: IL-4/IFN-gamma induced apoptosis, Annexin V staining
Procedure: FIG. 6. The Effects of Pentosan Polysulfate (PPS) on Human progenitor cells treated with apoptotic agents. Human progenitor cells were plated in serum-free media supplemented with PPS at the indicated concentrations. Progenitor cell apoptosis was induced by the addition of a combination of 30 ng/ml IL-4 plus 30,000 U/ml IFN-gamma. Following 5 days culture, cells were harvested by trypsinisation and viabilities assessed by Annexin V staining.
Human progenitor cells were plated in serum-free media supplemented with PPS at concentrations of 0, 1, 2, 5 and 10 micrograms/mL. Progenitor cell apoptosis was induced by the addition of a combination of 30 ng/ml IL-4 30,000 U/ml IFN gamma. Following 5 days culture, cells were harvested by trypsinisation and viabilities assessed by Annexin V staining as previously described (Kortesidis A, A Zannettino, S Isenmann, S Shi, T Lapidot and S Gronthos. (2005). Stromal-derived factor-1 promotes the growth, survival, and development of human bone marrow stromal stem cells. Blood 105:3793-3801).
The experiment was undertaken in a 96 well plate containing 50,000 progenitor cells/well.

pentosan polysulfate [PPS]
cell viability after freeze-thawing (MTT) ([1]; 100 μg/ml PPS, 0.25, 0.5 and 1.0 million cells): viability was enhanced
cell viability after freeze-thawing (MTT) ([1]; 500 μg/ml PPS, 0.25 million and 0.5 million cells): enhancement is seen
cell viability after freeze-thawing (MTT) ([1]; 500 μg/ml PPS, 1 million cells): did not appear to enhance viability but was not detrimental to viability
cell viability after freeze-thawing (MTT) ([1]; 7.5% DMSO, all PPS concentrations, FIG. 2): enhanced by the presence of PPS at all concentrations
increase of proteoglycan synthesis, of the control values [2]: more than 80%
cell division (3H-Thymidine incorporation into DNA) [3]: Marked stimulation of cell division
PPS concentration with best results on apoptosis (human progenitor cells; FIG. 6): 10 µg/mL
reduction in IFN-gamma/IL-4-induced apoptosis (Annexin V positive cells) (human progenitor cells; PPS in excess 1 ug/ml, 5 days culture, FIG. 6): two-fold reduction
cell apoptosis (human progenitor cells; all concentrations of PPS (1, 2, 5, 10 micrograms/mL)): reduced
reduction of apoptosis (human progenitor cells; concentrations above 1 microgram/mL, incubated with IL-4 and IFN-gamma, FIG. 6): about 50%

From patent publication US9888679B2, “Protection of progenitor cells and regulation of their differentiation” (Proteobioactives Pty Ltd, priority 2007, dated 2018)
